ChEMBL document CHEMBL2016451, “Antimycobacterial activity of bisbenzylisoquinoline alkaloids from Tiliacora triandra against multidrug-resistant isolates of Mycobacterium tuberculosis” (Bioorg Med Chem Lett, 2012)
≈ marks a conversion by molar mass, not a printed value.

Assays:
Assay type in all cases: functional
[1] = test system: Mycobacterium tuberculosis; experiment: Antimycobacterial activity against pyrazinamide-resistant Mycobacterium tuberculosis H37Rv ATCC 35828 after 16 to 24 hrs by alamar blue assay
[2] = test system: Mycobacterium tuberculosis; experiment: Antimycobacterial activity against ethionamide-resistant Mycobacterium tuberculosis H37Rv ATCC 35830 after 16 to 24 hrs by alamar blue assay
[3] = test system: Mycobacterium tuberculosis; experiment: Antimycobacterial activity against isoniazid-, rifampin-, streptomycin-resistant Mycobacterium tuberculosis after 16 to 24 hrs by alamar blue assay
[4] = test system: Mycobacterium tuberculosis; experiment: Antimycobacterial activity against isoniazid-, rifampin-, ofloxacin-, ethambutol-resistant Mycobacterium tuberculosis after 16 to 24 hrs by alamar blue assay
[5] = test system: Mycobacterium tuberculosis; experiment: Antimycobacterial activity against isoniazid-, rifampin-, ofloxacin-, ethambutol-, streptomycin-resistant Mycobacterium tuberculosis after 16 to 24 hrs by alamar blue assay
[6] = test system: Mycobacterium tuberculosis; experiment: Antimycobacterial activity against isoniazid-, rifampin-, ofloxacin-, streptomycin-resistant Mycobacterium tuberculosis after 16 to 24 hrs by alamar blue assay
[7] = test system: Mycobacterium tuberculosis; experiment: Antimycobacterial activity against isoniazid-, rifampin-, ethambutol-resistant Mycobacterium tuberculosis after 16 to 24 hrs by alamar blue assay
[8] = test system: Mycobacterium tuberculosis; experiment: Antimycobacterial activity against isoniazid-, rifampin-, streptomycin-, ethambutol-resistant Mycobacterium tuberculosis after 16 to 24 hrs by alamar blue assay
[9] = test system: Mycobacterium tuberculosis; experiment: Antimycobacterial activity against isoniazid-, rifampin-resistant Mycobacterium tuberculosis after 16 to 24 hrs by alamar blue assay

| Compound | MIC [1] [µg/mL] | MIC [2] [µg/mL] | MIC [3] [µg/mL] | MIC [4] [µg/mL] | MIC [5] [µg/mL] | MIC [6] [µg/mL] | MIC [7] [µg/mL] | MIC [8] [µg/mL] | MIC [9] [µg/mL] |
| --- | --- | --- | --- | --- | --- | --- | --- | --- | --- |
| COc1ccc2cc1-c1cc(ccc1O)C[C@@H]1NCCc3cc4c(cc31)Oc1c(c(OC)cc3c1[C@H](C2)N(C)CC3)O4 | 6.2 (≈ 11 µM) | 6.2 (≈ 11 µM) |  |  |  |  |  |  |  |
| COc1ccc2cc1-c1cc(cc(Br)c1O)C[C@H]1c3cc4c(cc3CCN1C)Oc1c(OC)cc3c(c1O4)[C@H](C2)N(C)CC3 | 3.1 (≈ 4.73 µM) | 3.1 (≈ 4.73 µM) |  |  |  |  |  |  |  |
| CC[C@@H](CO)NCCN[C@@H](CC)CO [ETHAMBUTOL] |  |  | ≤ 2 | ≥ 8 | ≥ 8 | ≤ 2 | ≥ 8 | ≥ 8 | ≤ 2 |
| NNC(=O)c1ccncc1 [ISONIAZID] |  |  | ≥ 2 | ≥ 2 | ≥ 2 | ≥ 2 | ≥ 2 | ≥ 2 | ≥ 2 |
| CC1COc2c(N3CCN(C)CC3)c(F)cc3c(=O)c(C(=O)O)cn1c23 (stereo not drawn) [OFLOXACIN] |  |  | ≤ 2 | ≥ 4 | ≥ 4 | ≥ 4 | ≤ 2 | ≤ 2 | ≤ 2 |
| CO[C@H]1/C=C/O[C@@]2(C)Oc3c(C)c(O)c4c(O)c(c(/C=N/N5CCN(C)CC5)c(O)c4c3C2=O)NC(=O)/C(C)=C\C=C\[C@H](C)[C@H](O)[C@@H](C)[C@@H](O)[C@@H](C)[C@H](OC(C)=O)[C@@H]1C [RIFAMPIN] |  |  | ≥ 2 | ≥ 2 | ≥ 2 | ≥ 2 | ≥ 2 | ≥ 2 | ≥ 2 |
| CN[C@@H]1[C@H](O[C@H]2[C@H](O[C@H]3[C@H](O)[C@@H](O)[C@H](N=C(N)N)[C@@H](O)[C@@H]3N=C(N)N)O[C@@H](C)[C@]2(O)C=O)O[C@@H](CO)[C@H](O)[C@H]1O [STREPTOMYCIN] |  |  | ≥ 8 | ≤ 2 | ≥ 8 | ≥ 8 | ≤ 2 | ≥ 8 | ≤ 2 |
| COc1ccc2cc1-c1cc(ccc1O)C[C@H]1c3cc4c(cc3CCN1C)Oc1c(OC)cc3c(c1O4)[C@@H](C2)N(C)CC3 [TILIACORINE] | 6.2 (≈ 10.8 µM) | 3.1 (≈ 5.38 µM) |  |  |  |  |  |  |  |
| COc1ccc2cc1-c1cc(ccc1O)C[C@H]1c3cc4c(cc3CCN1C)Oc1c(OC)cc3c(c1O4)[C@H](C2)N(C)CC3 [TILIACORININE] | 6.2 (≈ 10.8 µM) | 3.1 (≈ 5.38 µM) |  |  |  |  |  |  |  |
